The subject of one data set is MCF7/ADR cells. Nature of the data set: Viable cell count of MCF7/ADR cells (Trypan blue). It counts as cell-based, human. Particulars: doxorubicin 3 μM, 2 days. Here is the method:
(§1) FIG. 15A provides results of Western blot analysis for MCJ in MCF7 cells and MCF7/ADR (ADR) cells. Actin was used as loading control. […] Viable cells were counted 2 days later.
(§2) FIG. 16A-B provides graphs showing response to MCJ agonists. […] Cells were harvested 2 days later and viable cells were counted. […] Mice were harvested at day 4. The size of a tumor over time was determined by caliper measurements, and is represented as a percentage relative to the initial size prior to the treatment. p<0.05 as determined by a paired t-test.
(§3) Cell Culture. MCF7 and MCF7/ADR cells were a kind gift from Dr. Ken Cowan (National Cancer Institute, Bethesda, Md.). MCF7/siMCJ cells were generated by stable transfection with a plasmid expressing a shRNA for MCJ (siMCJ) as described in Hatle, K. M., et al., Mol Cell Biol 27, 2952-2966 (2007). All cells were maintained at 37 C, 5% CO2 in RPMI-1640 (Life technologies, Inc., Gaithersburg, Md.) containing 5% FBS.
(§4) Cell count. Cells were trypsinized, washed, and resuspended in medium. Number of viable cells was measured by counting using Trypan blue dye to exclude dead cells (visualized as blue).
(§5) Doxorubicin and peptides treatment in vitro. Doxorubicin (Sigma-Aldrich) was used at 3 μM final concentration. The three different peptides described in the examples (SEQ ID NO: 2, 18 or 6) were resuspended at 10 mM stock concentration in PBS. The peptides were used a different concentration as indicated for each example (1, 10, or 50 μM). Cells were plated the day prior the treatment (18-20 h prior to the treatment). For treatments with peptides only, peptides were added to the plates at the indicated concentrations, and after 2 or 3 days (as indicated for each example) cells were trypsinized, resuspended, and counted. For the treatment with doxorubicin and peptides, cells were pretreated with the corresponding peptide for 4 h prior to adding doxorubicin.
MCF7/ADR cells were incubated (using standard procedures) for three days in media alone or in media plus three different MCJ based polypeptides each at a concentration of 50 μM in media. The cells of set one were incubated in media and served as a control set. The cells of set two were incubated in media that included a 50 μM concentration of a MCJ polypeptide without a targeting agent polypeptide. The amino acid sequence of the N-MCJ polypeptide without a targeting agent polypeptide was […] (SEQ ID NO:2). The cells of set three were incubated in media that included a 50 μM concentration of a TAT-N-MCJ polypeptide. The amino acid sequence of the TAT-N-MCJ polypeptide was: […] (SEQ ID NO:18). […]

The next data set deals with MCF7 cells. The data set can be described thus: Viable cell count of MCF7 cells (Trypan blue). It counts as cell-based, human. Particulars: doxorubicin 3 μM.
Description: as §1, §3, §4, §5
MCF7 cells and MCF7/ADR cells were incubated (using standard procedures) for two days in media alone or in media that included different concentrations of the TAT-N-MCS-MTS polypeptide having the amino acid sequence set forth as: […]

Data set [1] relates to mammary tumors in MMTV mice. The data set can be described thus: Doxorubicin treatment in vivo, mammary tumor size in MMTV mice. Also noted: species or system mouse. Particulars: doxorubicin 2 mg/Kg i.p. every other day for two weeks, n=4. An excerpt:
(§6) Mice. […] MCJ KO mice were crossed with the previously described MMTV-PyMT mice [see: Guy, C. T., et. al., Mol Cell Biol 12, 954-961 (1992)] to generate MCJ KO MMTV mice. Wildtype MMTV mice and MCJ KO MMTV mice were used for the experiments. All mice were housed under sterile conditions at the animal care facility at the University of Vermont. The procedures were approved by the University of Vermont Institutional Animal Care and Use Committee.
Doxorubicin and peptides treatment in vivo. MTV mice and MCJ KO MMTV mice were used to assay response to doxorubicin and MCJ peptides. The treatments were initiated around 2.5-3 months of age when the mammary tumor these mice develop reach 300 mm^3. Doxorubicin was administered intreperitoneal in PBS (100 μl per mouse) at a dose of 2 mg/Kg. TAT-N-MCJ-mts peptide (SEQ ID NO: 6) was administered at the time of doxorubicin by a subcutaneous injection in PBS (100 μl per mouse) at a dose of 10 mg/Kg. Administrations of doxorubicin and peptide were performed every other day for the indicated period of time. Perpendicular tumor diameters were measured using a vernier scale caliper and tumor volume estimated using the formula for ellipsoid (width×high×length)/2. […]
The size of a tumor over time was determined by caliper measurements, and is represented as a percentage relative to the initial size prior to the treatment. p<0.05 as determined by a paired t-test.

Data set [2] relates to mammary tumors in MCJ KO MMTV mice. Nature of the data set: Doxorubicin and peptide treatment in vivo, mammary tumor size in MCJ KO MMTV mice. Set-up: species or system mouse. As to the method:
as §2, §6
Doxorubicin and peptides treatment in vivo. MTV mice and MCJ KO MMTV mice were used to assay response to doxorubicin and MCJ peptides. The treatments were initiated around 2.5-3 months of age when the mammary tumor these mice develop reach 300 mm^3. […] Perpendicular tumor diameters were measured using a vernier scale caliper and tumor volume estimated using the formula for ellipsoid (width×high×length)/2. […]
The size of a tumor over time was determined by caliper measurements, and is represented as a percentage relative to the initial size prior to the treatment. p<0.05 as determined by a paired t-test. […]

The conditions of data set [3]: mouse. As to the method: MCF7/ADR cells were treated with doxorubicin, TAT-N-MCJ-mts peptide alone or in combination. […] Thus, at lower doses, MCJ agonists could overcome chemo-resistance of breast cancer cells in vitro. A study was also performed that tested the effect of the TAT-N-MCJ-mts peptide in combination with chemotherapy in vivo using the MMTV mammary tumor mouse model. […] Therefore MCJ KO MMTV mice were treated with doxorubicin alone or doxorubicin and the TAT-N-MCJ-mts peptide and followed tumor size.

Here are results for two molecules from patent publication US10350262B2, “MCJ agonists and uses therefor” (priority 2015, dated 2019).

Entries after “also recorded” stand apart in the source; their conditions may differ. No end group written: not given here.

Regarding `COc1cccc2c1C(=O)c1c(O)c3c(c(O)c1C2=O)C[C@@](O)(C(=O)CO)C[C@@H]3O[C@H]1C[C@H](N)[C@H](O)[C@H](C)O1` [doxorubicin], the “expansion of cells (viable cells)” value in the data set on MCF7/ADR cells is given as “no effect on the expansion of MCF7/ADR cells”. Besides, the “effect on viable cells” value with MCF7 cells (2 days) is reported as “sensitive to doxorubicin”. Also, the cell death result with MCF7 cells (vs media alone) was “significant level of cell death”. Also, the “tumor size over time” value was “The size of the tumors in MMTV-Py mice was reduced; also recorded: tumor size in MMTV mice decreased over time” in data set [1]; “continued growing or did not shrink; also recorded: less reduction in tumor size; also recorded: did not decrease, and continued to increase over time” in data set [2] (doxorubicin 2 mg/Kg i.p. every other day for two weeks, n=4). In addition, the “tumor size (percentage relative to initial size)” value in data set [2] (doxorubicin alone 2 mg/Kg i.p. at day 0, 2 and 3, harvested day 4, n=3) is on record as “continued growing”.
As for “YGKKRRQRRGMAARGVIAPVGESLRYAEYLGTRTWVPKGLKSP [TAT-N-MCJ-MTS]”, the “toxicity in vivo (abnormality in treated mice)” value in data set [3] was “no obvious abnormality was observed”.
